Measured values taken from patent US11674967B2, “Method of identifying potential inhibitors of APO TNFα trimers” (UCB BIOPHARMA SRL, priority 2015, dated 2023).

What was measured:
[1] = target: T1, TNFα (Homo sapiens, UniProt P01375); test: Meso Scale Discovery (MSD) assay of TNFα binding to plate-coated TNFR-ECD; design: purchased R&D Systems; details: single point, 100 μM, 5% DMSO
Method: 384 well uncoated plates (standard binding) Meso Scale Discovery plates (MSD) were coated overnight with the extracellular domain of TNFR (TNFR-ECD) (10 μl, 1 ug/mL in PBS). To ensure even distribution plates were centrifuged at 1000 rpm for 2 minutes. The plates were then sealed and stored at +4° C. overnight.
The wells of the plates were then washed three times in 50 μl phosphate buffered saline pH 6.5 (PB) with 0.05% Tween 20 (wash buffer), and then blocked with 50 μl 2% BSA. The plates were then incubated at room temperature on a shaker (600 rpm) for 2 hours. After this incubation plates were washed (3×50 μl wash buffer per well). During the blocking incubation, compounds of formulae (3) and (15) were pre-incubated with TNF (R&D Systems) prior to addition to the pre-blocked and washed MSD plates. For a single point assay as shown in FIG. 2A the compounds were assayed at a final concentration of 100 μM (5% final v/v DMSO). […]
The plates were then washed (3×50 μl wash buffer per well), followed by the addition of 50 μl MSD Read buffer T plus surfactant (diluted 1 in 2 in H2O) and read on a SECTOR Imager 6000.
For single point assays percentage inhibition was calculated using a control sample without compound.
For EC50s determination results were calculated by standard means using a 4 parameter logistic model (sigmoidal dose response model).
Target sequence in this assay (P01375 77-233 limits assumed): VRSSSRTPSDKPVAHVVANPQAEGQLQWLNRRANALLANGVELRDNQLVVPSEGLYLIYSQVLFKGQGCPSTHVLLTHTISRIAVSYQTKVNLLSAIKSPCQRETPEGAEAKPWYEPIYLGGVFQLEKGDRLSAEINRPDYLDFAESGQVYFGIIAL
Target sequence in this assay (P19438 30-211 partner limits assumed): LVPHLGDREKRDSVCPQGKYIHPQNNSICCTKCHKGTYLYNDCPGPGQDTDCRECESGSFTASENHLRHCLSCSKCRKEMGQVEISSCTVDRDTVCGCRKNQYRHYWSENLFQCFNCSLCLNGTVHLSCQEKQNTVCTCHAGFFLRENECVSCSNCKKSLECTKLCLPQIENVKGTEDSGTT

[2] = target: T2, human TNFα trimer (Homo sapiens, UniProt P01375); test: RMSD of crystal structure of compound-bound TNFα trimer to Reference Structure Compound 34; details: Cα atoms of β-sheet residues, all three subunits, PyMOL
T2 construct: His6Smt-tag (N, cleaved yes); made in house; host or cells: E. coli (vector pEMB54)
T2 sequence (P01375 with tags, fused parts or gaps): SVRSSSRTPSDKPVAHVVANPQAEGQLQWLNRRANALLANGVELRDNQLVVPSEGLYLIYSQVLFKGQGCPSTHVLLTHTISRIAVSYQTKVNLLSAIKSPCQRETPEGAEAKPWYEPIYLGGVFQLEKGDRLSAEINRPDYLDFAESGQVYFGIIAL
Method: Cells were pre-cultured at 37° C. in rich media, induced with the addition of 0.1% arabinose and allowed to express overnight at 25° C. in vector pEMB54. This vector introduces a cleavable N-terminal His6Smt-tag. The cells were lysed and purified by Ni-NTA chelate chromatography. The fusion protein was eluted with buffer containing imidazole and cleaved by the addition of protease. The final cleaved TNFα protein was purified by a subtractive Ni chelate chromatography step to remove the fusion tag and further purified by size exclusion chromatography to remove the remaining impurities. The final TNFα product was typically concentrated to 20.0 mg/ml and flash frozen in liquid nitrogen.
Purified human TNF[…] (20.0 mg/ml, VC 2043) was diluted to 4-7 mg/ml in 10 mM HEPES pH 7.5, 150 mM NaCl buffer followed by overnight incubation at 4° C. with 0.3-0.5 mM compound (1-2 molar excess). The TNF[…] compound complexes were crystallized by sitting drop vapor diffusion by mixing 0.5 μl of complex with 0.5 μl of 21.44% PEG 3350, 100 mM Tris, pH 9.0 (UCB1474433); or 22.0% PEG 3350, 100 mM glycine, 100 mM Tris, pH 8.5 (UCB1480595); or 25.6% PEG 3350, 100 mM Tris, pH 8.3, 3% xylitol (UCB5143079) or other formulation with varying precipitant concentration or additives over 100 μl of the same crystallization solution. Other formulations for other compounds include a range of PEG 3350 of 8-28%. Other PEG-like additives include PEG 1000 (8-18%) or PEG 2000 (10-13%). Other additives include MPD (5-13%) or 200 mM NaCl. Other buffers include 100 mM Hepes (pH 7-8), 100 mM Tris or bis-Tris (pH 6.7-9.0). Other non-PEG 3350 crystallization solutions consist of PEG 2000 (14-19%), 100 mM Hepes, pH 8, 25 mM arginine; or 17% PEG 10000, 200 mM ammonium acetate, 100 mM bis-Tris, pH 5.5; or 30% PEG 2000 MME, 100 mM sodium acetate, 100 mM Mes, pH 6.5.
Crystals were briefly soaked in ethylene glycol and/or vitrified directly in liquid nitrogen for data collection.
X-ray diffraction data were collected from a synchrotron source at a wavelength, most frequently, of 0.976484 Å and recorded on CCD detector. […] The structure of the human TNF[…] (VC 2043) complexed with compound was solved by molecular replacement using Phaser with input model of 1TNF. […] Iterative manual model building using Coot (Emsley and Cowtan, 2004) and Refmac (Murshudov et al., 1997) continued until R and Rfree converged. […] The resolution of the structures was most frequently around 2.15 Å.
Root mean squared deviation (RMSD) calculations were carried out to ascertain the distance of each of the crystal structures of distorted TNFα trimer to a reference structure.
RMSD calculations were done using the program PyMOL (www.pymol.org). In this example version 1.7. was used. The cmd.rms PyMOL command was used with defined pairs of atoms. The atoms used were the backbone Ca's of certain residues within the β-strands of TNFα. The residue numbers used are shown below:
These residue numbers are those within the published structure of TNFα with PDB code 1A8M and within the distorted TNFα trimer structures of this invention. The residue numbers are also according to the sequence of SEQ ID NO:36. The residues in each of the three chains with the TNFα structures, (labelled A, B, and C according to our instructions) were used.
The command cmd.rms was used with the following arguments:
rms=cmd.rms(“(moving)”, “(target)”, matchmaker=4, quiet=0, cycles=0)
where “(moving)” is the selection of atoms in a given TNFα structure and “(target)” is the selection of equivalent atoms within the reference structure.
The RMSD was calculated for each structure against all others. The “representative structure” or “Reference Structure” was chosen to be the one with the lowest sum RMSD to all others—the structure “Compound 34” or “Compound34.pdb”.
Reference Structure (Compound 34) and Query Structure (Compound 64) were overlaid (see FIG. 17 with Reference Structure emboldened) by: • 1. […]

[3] = system: TNFR2; test: Membrane TNF - TNFR2 signalling (NS0-mTNF cells with expanded primary human T cells); assay type: cell-based; details: compound bound to membrane TNFα on NS0 cells
Method: A murine B cell line (NS0-mTNF) stably expressing non-cleavable human membrane TNF due to a mutation at the TACE cleavage site was used to trigger TNFR2 signalling in PHA-L and IL-2 expanded primary human T cells. […] TNFR1 was also present on these cells but was blocked using a UCB mouse anti-human-TNFR1 antibody 5R16.
NS0-mTNF cells were cultured with 10 μM NCEs for 1 hour to allow binding of Compounds to membrane TNF. T cells were then mixed with the NS0-mTNF cells and following a brief spin to allow cell-cell contact, cells were incubated for 5 min and then lysed in lysis buffer. […] First TRAF-2 recruitment to the TNFR2 receptor was measured in Co-immunoprecipitation experiments as a measure of membrane proximal signalling. After lysis of cells TNFR2 was isolated from the lysate using polyclonal goat anti-human TNFR2 antibodies followed by protein G sepharose bead purification. TNFR2 associated TRAF-2 was then measured in immunoblots after running the purified TNFR2 preparation on a SDS-PAGE. In addition, the whole cell lysate was also sampled for the presence of pNFκB using SDS-PAGE and pNFκB specific immunoblots.
• PBMC from 3 three different donors were cultured in 6 well plates with 10×10^6 cells per well in 5 ml of RPMI1640 supplemented with 10% FCS, 1% human serum, HEPES GlutaMAX, 25 U/ml hIL-2 (Roche) and 2 μg/ml PHA-L (Sigma) to grow out T cells • after 3 days cells were resuspended and cultured in 75 cm^2 flasks with the same media as above, but lacking the PHA-L • growth of culture was monitored and media was changed every 3 days.
This is a 2× solution • prepare 500 μl of 10×10^6 NS0-wt cells • After 1 h add 500 μl human T cells (50×10^6 cells/test) in human media at 37° C. T cells were preincubated for 15 min @37° C. with 50 μg/ml 5R16 anti-TNFR1 Fab-PEG to block signalling via TNFR1 prior adding to the NS0 cells. […]

[4] = target: T1, TNFα; test: Surface plasmon resonance kinetics of compound binding to immobilised TNFα
Method: Surface plasmon resonance was used to measure the association rate, the dissociation rate and the affinity of the compounds of formulae (3) and (15) for TNFα (FIGS. 12A and B). For the purpose of this study a Biacore T100/T200 was used.
TNFα was immobilised at pH5 to a level of 5-8 KRU onto a CMS sensor in HBS-P buffer (10 mM HEPES pH 7.4, 0.15 M NaCl, 0.005% Surfactant P20, BIAcore, GE Healthcare). The TNFα was then equilibrated in HBS-P with 5% DMSO for at least 5 hours. The samples were diluted from 10 mM stocks into DMSO matched buffer and left to solubilise for at least 5 hours. The flow rate was […].
This assay was performed by adding 4 or 5 concentrations of compound starting from a highest concentration of 25 μM for compound of formula (3) and 1 μM for compound of formula (15) and then serially diluting this sample. Background subtraction binding curves were analysed using the BIAevaluation software following standard procedures. Binding, affinity and kinetic parameters were determined using Biacore software. The kinetic data were fitted using the levenberg marquardt algorithm.
Target sequence in this assay (P01375 77-233 limits assumed): as the sequence (P01375 77-233 limits assumed) above

% inhibition of TNFα binding to the TNF receptor [1] | RMSD (Å) with Compound 34 [2] [Å] | kon [4] [M⁻¹ s⁻¹] | SMILES | TNFR2 specific membrane proximal (TRAF-2 recruitment to TNFR2) and downstream (pNFκB) signalling [3]
+80% |  |  | Cc1cc2occ(CN(C)CCN(C)Cc3cn(-c4cccc(C(F)(F)F)c4)c4ccccc34)c(=O)c2cc1C [SPD-304] | 
 | 0.36 |  | Cc1nc2ccc(-c3ccc(N4CCNCC4)nc3)cn2c1Cc1ccccc1OC(F)F [Compound 43] | does not impair
 | 0.22 | 5470 | O=C1CCCN1c1cccc(OCc2nc3ccc(-c4ccc(=O)[nH]c4)cc3n2Cc2ccccc2OC(F)F)c1 [Compound 39] | does not impair
 | 0.24 |  | N#Cc1ccc2nc(Cc3csc(N4CCNC4=O)n3)n(Cc3ccccc3OC(F)F)c2c1 [Compound 31] | 
 | 0.21 |  | Cc1ccc(C)c(Cn2c(C(O)c3ccc(N(C)C)cc3)nc3ccccc32)c1 (centres unmarked) [Compound 4] | 
